Source: US8637521B2, “Substituted piperazin-2,5-diones and their use as multifunctional bioactive compounds” (priority 2006, dated 2014)
pEC50: −log10 of the molar value. Where two headings read alike, the source gives them in different places. Square brackets hold non-standard residues; d marks the D form. Peptide text beside a SMILES is read from it. * marks the point of attachment. X1 = O=C(O)CC[C@@H]1NC(=O)[C@H](CCCCN*)NC1=O

Legend:
[1] = biological target: μ-receptor (isolated guinea pig ileum, GPI) (Cavia porcellus, UniProt P97266); assay: Peripheral opioid activity: inhibition of electrically-induced contractions of isolated guinea pig ileum (GPI); details: for Value of pD2 (M ± m): negative logarithm of EC50; for pEC50: concentration reducing contraction amplitude by 50%, 5 replications
Procedure: The segment of GPI about 1 cm long was placed into a 10-ml organ bath containing Krebs solution at 34° C. […] Resting tension of the organ was 1 g. The segment of GPI was stimulated by single pulses duration 1 ms with 0.1 Hz at 80 V. The solution with isolated organs was constantly aerated. The contractions were recorded in an isometrical mode by a sensor K 30 (Hugo Sachs Elektronic KG) with paper register Rikadenki-series (Japan).
The substances tested were dissolved in distilled water and added cumulatively to the organ bath at a volume of 5 to 30 mcl. Each subsequent substance was added after the isolated organs were washed 3 or 4 times for 12-15 min. On the basis of the data obtained, dose-effects curves were plotted and the activity of substances was expressed by IC50 or pD2. The pD2 index was equal to a negative decimal logarithm of the substance concentration causing a 50% of the maximal effect.
New dermorphin analogues were tested in the standard model of Guinea pig ileum binding test.
For confirmation of opioid activity, the specific antagonist naloxson was used in concentration of 10^−5M. Each molecule was tested in 5 independent replications and relative activity was calculated as negative logarithm of EC50 (pD2).

[2] = system: BALB/c male mice; assay: Antinociceptive activity, tail flick test with heat radiation, intragastral or intraperitoneal; type: in vivo; details: Table 11
Procedure: For estimation of oral activity of novel cyclopeptides of the present invention, the “tail flick” test was used. The results were compared with those obtained using intraperitoneal administration.
Antinociceptive activity of the peptides of the present invention was assessed in experiments on BALB/c male mice weighing 22 to 24 g. The peptides were dissolved in saline and administered intraperitoneally or intragastrally.
The “Tail flick” test (D'Amour, F. E. et al. “A Method for Determining Loss of Pain Sensation”, J. Pharmacol. Exp. Ther., Vol. 72, Pages 74 to 79, 1941) was performed on an analgesimeter type 812, Hugo Sachs Electronick KG. Antinociceptive activity was defined as the absence of tail flick response on stimulation with a focused bundle of heat radiation with 6 sec at baseline response of 2.0-3.0 seconds.
Statistical treatment of the results was carried out by the Student's paired t-test.

Sequence of μ-receptor (isolated guinea pig ileum, GPI) (P97266 whole entry): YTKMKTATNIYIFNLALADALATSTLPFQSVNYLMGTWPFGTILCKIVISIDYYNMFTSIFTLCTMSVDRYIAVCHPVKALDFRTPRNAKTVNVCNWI

SMILES | Value of pD2 (M ± m) [1] | pEC50 ([1]; read-out: Median EC50 in M) | pEC50 ([1]; read-out: Median EC50) | Initial sensitivity level, mean ([2]; oral 50 mg/kg group, before administration) [s] | Effect duration ([2]; oral 50 mg/kg, 15 min, cut-off 6 sec) [s]
COC(=O)[C@H](Cc1c[nH]c2ccccc12)NC(=O)CC[C@@H]1NC(=O)[C@H](CCCCNC(=O)[C@@H](C)NC(=O)[C@H](Cc2ccccc2)NC(=O)[C@@H](C)NC(=O)[C@@H](N)Cc2ccc(O)cc2)NC1=O [Compound 45, Cyclo-[L-Lys(H-Tyr-D-Ala-Phe-D-Ala)-L-Glu(L-Trp-OMe)]] | 5.68 ± 0.09 | 5.70 | – | – | –
CC(C)C[C@H](NC(=O)[C@H](Cc1ccccc1)NC(=O)CNC(=O)[C@@H](C)NC(=O)[C@@H](N)Cc1ccc(O)cc1)C(=O)N[C@@H](CCCNC(=N)N)C(=O)O [Compound 56, H-Tyr-D-Ala-Gly-Phe-Leu-Arg-OH] (H-Y[dA]GFLR-OH) | 7.53 ± 0.22 | 7.30 | – | – | –
C[C@@H](NC(=O)[C@H](Cc1ccccc1)NC(=O)[C@@H](C)NC(=O)[C@@H](N)Cc1ccc(O)cc1)C(=O)N[C@@H](Cc1ccc(O)cc1)C(=O)N1CCC[C@H]1C(=O)N[C@@H](CO)C(=O)NCCCC[C@@H]1NC(=O)[C@H](CCC(=O)N[C@@H](Cc2c[nH]c3ccccc23)C(N)=O)NC1=O [Compound 46, Cyclo-[L-Lys(H-Tyr-D-Ala-Phe-D-Ala-Tyr-Pro-Ser)-L-Glu(L-Trp-NH2)]] | 7.96 ± 0.02 | 7.96 | – | – | –
C[C@@H](NC(=O)[C@@H](N)Cc1ccc(O)cc1)C(=O)N[C@@H](Cc1ccccc1)C(=O)NCC(=O)N[C@@H](Cc1ccc(O)cc1)C(=O)N1CCC[C@H]1C(=O)N[C@@H](CO)C(N)=O [Compound 48, H-Tyr-D-Ala-Phe-Gly-Tyr-Pro-Ser-NH2] | 8.56 ± 0.12 | 8.60 | – | – | –
C[C@@H](NC(=O)[C@H](Cc1ccccc1)NC(=O)[C@@H](C)NC(=O)[C@@H](N)Cc1ccc(O)cc1)C(=O)N[C@@H](Cc1ccc(O)cc1)C(=O)N1CCC[C@H]1C(=O)N[C@@H](CO)C(N)=O [Compound 49, H-Tyr-D-Ala-Phe-D-Ala-Tyr-Pro-Ser-NH2] (H-Y[dA]F[dA]YPS-NH2) | 7.55 ± 0.11 | 7.52 | – | – | –
C[C@@H](NC(=O)[C@H](Cc1ccccc1)NC(=O)[C@@H](C)NC(=O)[C@@H](N)Cc1ccc(O)cc1)C(=O)N[C@@H](Cc1ccc(O)cc1)C(=O)N1CCC[C@H]1C(=O)N[C@@H](CO)C(=O)NCCCC[C@@H]1NC(=O)[C@H](CCC(=O)N[C@@H](Cc2c[nH]c3ccccc23)C(=O)O)NC1=O [Compound 47, Cyclo-[L-Lys(H-Tyr-D-Ala-Phe-D-Ala-Tyr-Pro-Ser)-L-Glu(L-Trp-OH)]] | 7.52 ± 0.07 | 7.48 | – | – | –
C[C@@H](NC(=O)[C@H](Cc1ccccc1)NC(=O)[C@@H](C)NC(=O)[C@@H](N)Cc1ccc(O)cc1)C(=O)NCCCC[C@@H]1NC(=O)[C@H](CCC(=O)O)NC1=O [Compound 44, Cyclo-[L-Lys(H-Tyr-D-Ala-Phe-D-Ala)-L-Glu(OH)]] (H-Y[dA]F[dA]-X1) | 6.15 ± 0.10 | 6.24 | – | – | –
C[C@@H](NC(=O)[C@H](Cc1ccc(O)cc1)NC(=O)[C@@H](N)CCCNC(=N)N)C(=O)N[C@@H](Cc1ccccc1)C(=O)NCC(=O)O [Compound 52, Arg-Tyr-D-Ala-Phe-Gly-OH] (H-RY[dA]FG-OH; N-terminus assumed) | 5.50 ± 0.07 | – | 5.52 | – | –
COc1cccc(C2(O)CCCCC2CN(C)C)c1 (stereo not drawn) [Tramadol] | – | – | – | 2.6 ± 0.1 | 2.6 ± 0.1
